# Results reported in patent US10273228B2, “Hepatitis B viral assembly effectors” (Indiana University Research and Technology Corporation, priority 2015, dated 2019).
# Assays:
# [1] = system: HBV viral load, AD38 cells; assay: Activity of test compounds on viral production from AD38 cells (viral load by quantitative PCR of the core sequence in supernatant); type: cell-based, Hepatitis B virus; conditions: 10 μM compound, 6 days at 37° C., vs DMSO control wells, Table 9; for activity at 10 µM: Hepatitis B virus, 144 h, read-out: AD38 Viral Load (CpAM/DMSO %) at 10 μM
# In short: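 Cells seeded at 50,000/well on collagen-coated plates and exposed for 6 days at 37 °C to compound at 1, 3 or 10 μM final (1.0% DMSO). Supernatant viral DNA measured by TaqMan qPCR of the core sequence against known standards, compared with DMSO control wells.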
# [2] = system: AD38 cells; assay: AD38 viability normalized to DMSO control; type: cell-based; conditions: 10 μM compound, vs DMSO control; Table 9
# Protocol: AD38 cells were then re-suspended with 10 mL of treatment medium and counted. Wells of a collagen coated 96-well NUNC microtiter plate were seeded at 50,000/well in 180 μL of treatment medium, and 20 μL of either 10% DMSO (Control) or a 10× solution of test compound in 10% DMSO in treatment media was added for a final compound concentration 1, 3, or 10 μM (1.0% final [DMSO]) and plates were incubated for 6 days at 37° C.
SMILES,activity at 10 µM [1] [%],AD38 Viability Normalized Result (CPAM/DMSO %) at 10 μM [2] [%],AD38 Viral Load (CpAM/DMSO %) at 10 μM [1] [%]
CCCCOc1ccc(S(=O)(=O)N2CCN(c3nc(Nc4ccc(C#N)cc4)cc(C(F)(F)F)n3)CC2)cc1 [Compound 1334],2,102,
CCOc1ccc(S(=O)(=O)N2CCN(c3nc(C)cc(Nc4ccc(F)cc4)n3)CC2)cc1 [Compound 1336],59,103,
CCCCOc1ccc(S(=O)(=O)N2CCN(c3nc(C)cc(Nc4ccc(F)cc4)n3)CC2)cc1 [Compound 1337],34,93,
Cc1ccc(S(=O)(=O)N2CCN(c3nc(C)cc(Nc4ccc(F)cc4)n3)CC2)cc1 [Compound 1339],50,93,
O=S(=O)(c1ccc(OC(F)(F)F)cc1)N1CCN(c2nc(Nc3ccc(F)cc3)cc(C(F)(F)F)n2)CC1 [Compound 1340],1,88,
CCOc1ccc(S(=O)(=O)N2CCN(c3nc(Nc4ccc(F)cc4)cc(C(F)(F)F)n3)CC2)cc1 [Compound 1341],1,95,
CCCCOc1ccc(S(=O)(=O)N2CCN(c3nc(Nc4ccc(F)cc4)cc(C(F)(F)F)n3)CC2)cc1 [Compound 1342],17,107,
O=S(=O)(c1ccccc1)N1CCN(c2nc(Nc3ccc(F)cc3)cc(C(F)(F)F)n2)CC1 [Compound 1343],6,31,
Cc1ccc(S(=O)(=O)N2CCN(c3nc(Nc4ccc(F)cc4)cc(C(F)(F)F)n3)CC2)cc1 [Compound 1344],2,0,
O=S(=O)(c1ccc(F)cc1)N1CCN(c2nc(Nc3ccc(F)cc3)cc(C(F)(F)F)n2)CC1 [Compound 1345],14,77,
Cc1cc(Nc2ccc(F)cc2)nc(N2CCN(S(=O)(=O)c3ccc(F)cc3)CC2)n1 [Compound 1347],2,7,
COc1ccc(S(=O)(=O)N2CCN(c3nc(C)cc(Nc4ccc(F)cc4)n3)CC2C)cc1 (centres unmarked) [Compound 1348],5,102,
COc1ccc(S(=O)(=O)N2CCN(c3nc(C)cc(Nc4ccc(C#N)cc4)n3)C(=O)C2)cc1 [Compound 1352],89,96,
CCOc1ccc(S(=O)(=O)N2CCN(c3nc(Nc4ccc(C#N)cc4)cc(-c4nccs4)n3)CC2)cc1 [Compound 1353],7,107,
CCCCOc1ccc(S(=O)(=O)N2CCN(c3nc(Nc4ccc(C#N)cc4)cc(-c4nccs4)n3)CC2)cc1 [Compound 1354],24,97,
N#Cc1ccc(Nc2cc(-c3nccs3)nc(N3CCN(S(=O)(=O)c4ccccc4)CC3)n2)cc1 [Compound 1355],5,103,
Cc1ccc(S(=O)(=O)N2CCN(c3nc(Nc4ccc(C#N)cc4)cc(-c4nccs4)n3)CC2)cc1 [Compound 1356],6,97,
O=S(=O)(c1ccc(OC(F)(F)F)cc1)N1CCN(c2nc(Nc3ccc(F)cc3)cc(-c3nccs3)n2)CC1 [Compound 1357],,95,67
CCOc1ccc(S(=O)(=O)N2CCN(c3nc(Nc4ccc(F)cc4)cc(-c4nccs4)n3)CC2)cc1 [Compound 1358],77,99,
CCCCOc1ccc(S(=O)(=O)N2CCN(c3nc(Nc4ccc(F)cc4)cc(-c4nccs4)n3)CC2)cc1 [Compound 1359],,97,60
O=S(=O)(c1ccccc1)N1CCN(c2nc(Nc3ccc(F)cc3)cc(-c3nccs3)n2)CC1 [Compound 1360],28,94,
Cc1ccc(S(=O)(=O)N2CCN(c3nc(Nc4ccc(F)cc4)cc(-c4nccs4)n3)CC2)cc1 [Compound 1361],25,95,

SMILES,activity at 10 µM [1] [%],AD38 Viability Normalized Result (CPAM/DMSO %) at 10 μM [2] [%],AD38 Viral Load (CpAM/DMSO %) at 10 μM [1] [%]
O=S(=O)(c1ccc(F)cc1)N1CCN(c2nc(Nc3ccc(F)cc3)cc(-c3nccs3)n2)CC1 [Compound 1362],54,88,
COc1ccc(S(=O)(=O)N2CCN(c3nc(C)cc(Nc4ccc(C#N)cc4)n3)C(C)C2)cc1 (centres unmarked) [Compound 1363],1,93,
N#Cc1ccc(Nc2cc(-c3nccs3)nc(N3CCN(S(=O)(=O)c4ccc(OC(F)(F)F)cc4)CC3)n2)cc1 [Compound 1364],62,100,
N#Cc1ccc(Nc2cc(-c3nccs3)nc(N3CCN(S(=O)(=O)c4ccc(F)cc4)CC3)n2)cc1 [Compound 1365],53,98,
"COc1ccc(S(=O)(=O)N2CCN(c3nc(C)cc(Nc4ccc(C#N)cc4)n3)CC2=O)cc1 [Compound 1366, 4-((2-(4-((4-methoxyphenyl)sulfonyl)-3-oxopiperazin-1-yl)-6-methylpyrimidin-4-yl)amino) benzonitrile]",41,108,
O=S(=O)(c1ccc(OC(F)(F)F)cc1)N1CCN(c2nc(Nc3ccc(F)cc3)cc(-c3nccs3)n2)CC1 [Compound 1367],,105,44
CCCCOc1ccc(S(=O)(=O)N2CCN(c3nc(Nc4ccc(F)cc4)cc(-c4nccs4)n3)CC2)cc1 [Compound 1368],,94,147
CCCCOc1ccc(S(=O)(=O)N2CCN(c3nc(Nc4ccc(C#N)cc4)cc(-c4cncs4)n3)CC2)cc1 [Compound 1369],56,96,
COc1ccc(S(=O)(=O)N2CCN(c3nc(C)cc(Nc4ccc(F)cc4)n3)CC2(C)C)cc1 [Compound 1370],12,114,
COc1ccc(S(=O)(=O)N2CCN(c3nc(C)cc(Nc4ccc(F)cc4)n3)C(C)C2)cc1 (centres unmarked) [Compound 1371],29,111,
N#Cc1ccc(Nc2cc(-c3cncs3)nc(N3CCN(S(=O)(=O)c4ccc(OC(F)(F)F)cc4)CC3)n2)cc1 [Compound 1372],21,109,
CCOc1ccc(S(=O)(=O)N2CCN(c3nc(Nc4ccc(C#N)cc4)cc(-c4cncs4)n3)CC2)cc1 [Compound 1373],8,109,
N#Cc1ccc(Nc2cc(-c3cncs3)nc(N3CCN(S(=O)(=O)c4ccccc4)CC3)n2)cc1 [Compound 1374],7,107,
O=S(=O)(c1ccc(F)cc1)N1CCN(c2nc(Nc3ccc(F)cc3)cc(-c3nccs3)n2)CC1 [Compound 1375],,104,43
COc1ccc(S(=O)(=O)N2CCN(c3nc(C)cc(Nc4ccc(C#N)cc4)n3)CC2(C)C)cc1 [Compound 1376],20,121,
"Cc1cc(Nc2ccc(C#N)cc2)nc(N2CCN(S(=O)(=O)c3ccc(OCCN(C)C)cc3)CC2)n1 [Compound 1377, 4-((2-(4-((4-(2-(dimethylamino)ethoxy)phenyl)sulfonyl)piperazin-1-yl)-6-methylpyrimidin-4-yl)amino) benzonitrile]",1,15,
"Cc1cc(Nc2ccc(F)cc2)nc(N2CCN(S(=O)(=O)c3ccc(OCCN(C)C)cc3)CC2)n1 [Compound 1378, 2-(4-((4-(2-(dimethylamino)ethoxy)phenyl)sulfonyl)piperazin-1-yl)-N-(4-fluorophenyl)-6-methylpyrimidin-4-amine]",13,1,
Cc1ccc(S(=O)(=O)N2CCN(c3nc(Nc4ccc(C#N)cc4)cc(-c4cncs4)n3)CC2)cc1 [Compound 1379],6,110,
N#Cc1ccc(Nc2cc(-c3cncs3)nc(N3CCN(S(=O)(=O)c4ccc(F)cc4)CC3)n2)cc1 [Compound 1380],10,108,
"Cc1cc(Nc2ccc(F)cc2)nc(N2CCN(S(=O)(=O)c3ccc(C(=O)O)cc3)CC2)n1 [Compound 1381, 4-((4-(4-((4-fluorophenyl)amino)-6-methylpyrimidin-2-yl)piperazin-1-yl)sulfonyl) benzoic acid]",46,107,
"COC(=O)c1ccc(S(=O)(=O)N2CCN(c3nc(C)cc(Nc4ccc(F)cc4)n3)CC2)cc1 [Compound 1382, methyl 4-((4-(4-((4-fluorophenyl)amino)-6-methylpyrimidin-2-yl)piperazin-1-yl)sulfonyl) benzoate]",34,107,
